ChEMBL document CHEMBL1765018, “Inhibition of amyloid-β aggregation by coumarin analogs can be manipulated by functionalization of the aromatic center” (Bioorg Med Chem, 2011)
Activity calls are given as the source filed them. No cut-off for these calls is given here.

Key:
[1] = Inhibition of amyloid beta (1 to 40) monomer aggregation assessed as lag time extension by thioflavin T based fluorometric assay relative to control
[2] = Inhibition of amyloid beta (1 to 40) monomer aggregation assessed as reduction in plateau fluorescence by thioflavin T based fluorometric assay; design: concentration or dose not given beside the values
[3] = Inhibition of amyloid beta (1 to 40) monomer aggregation at 100 uM by thioflavin T based fluorometric assay
[4] = Inhibition of amyloid beta (1 to 40) monomer aggregation assessed as doubling in lag time by thioflavin T based fluorometric assay

Row | Structure (SMILES) | fold change (FC) [1] | inhibition ([2]; concentration not given here) [%] | other results
1 | CCN(CC)c1ccc2c(C#N)c(-c3nc4ccccc4s3)c(=O)oc2c1 | 1.1 | 38 | –
2 | CCN(CC)c1ccc2c(-c3nnn[nH]3)c(-c3nc4ccccc4s3)c(=O)oc2c1 | 1 | 96 | –
3 | O=c1cc(Cl)c2ccccc2o1 | – | – | inhibition [2]: inactive; Activity [3]: inactive; Activity [1]: inactive
4 | O=C(O)CCCC(=O)NCc1cn(-c2cc3ccccc3oc2=O)nn1 | – | – | inhibition [2]: inactive; Activity [1]: inactive
5 | O=c1oc2ccccc2cc1-c1nn[nH]n1 | 1 | 87 | –
6 | CCN(CC)c1ccc2cc([N+](=O)[O-])c(=O)oc2c1 | 1.7 | – | –
7 | N#Cc1cc2ccccc2oc1=O | 1 | 22 | –

The next lines start with results.

Row | fold change (FC) [1] | inhibition ([2]; concentration not given here) [%] | Structure (SMILES) | other results
8 | 2.1 | – | CCN(CC)c1ccc2c(C#N)c(N)c(=O)oc2c1 | –
9 | 2.2 | 88 | O=c1oc2ccccc2cc1-n1cc(-c2ccccc2)nn1 | –
10 | 1.3 | 64 | CCN(CC)c1ccc2cc(-c3nc4ccccc4s3)c(=O)oc2c1 | –
11 | 2 | 61 | O=c1oc2ccccc2cc1-n1cc(-c2cccc3ccccc23)nn1 | Activity [4]: Active
12 | 1.4 | 73 | O=c1cc(-n2cc(-c3ccccc3)nn2)c2ccccc2o1 | –
13 | 1.8 | – | CCN(CC)c1ccc2c(C#N)c(C(C)=O)c(=O)oc2c1 | –
